# Biological target: T1, human V1a receptor (Homo sapiens, UniProt P37288)
# T1 construct: expressed in transfected cells; host or cells: HEK293 cells, transiently transfected; membranes prepared
# Test: human V1a receptor binding (3H-Vasopressin SPA, membranes of transfected HEK293 cells)
# Settings: not given
# Procedure: The human V1a receptor was cloned by RT-PCR from total human liver RNA. The coding sequence was subcloned in an expression vector after sequencing to confirm the identity of the amplified sequence. […] Cell membranes were prepared from HEK293 cells transiently transfected with the expression vector and grown in 20 liter fermenters with the following protocol.
# 50 g of cells are resuspended in 30 ml freshly prepared ice cold Lysis buffer (50 mM HEPES, 1 mM EDTA, 10 mM MgCl2 adjusted to pH=7.4+ complete cocktail of protease inhibitor (Roche Diagnostics)). Homogenized with Polytron for 1 min and sonicated on ice for 2×2 minutes at 80% intensity (Vibracell sonicator). The preparation is centrifuged 20 min at 500 g at 4° C., the pellet is discarded and the supernatant centrifuged 1 hour at 43,000 g at 4° C. (19'000 rpm). The pellet is resuspended in 12.5 ml Lysis buffer+12.5 ml Sucrose 20% and homogenized using a Polytron for 1-2 min. The protein concentration is determined by the Bradford method, and aliquots are stored at −80° C. until use. For binding studies 60 mg Yttrium silicate SPA beads (Amersham) are mixed with an aliquot of membrane in binding buffer (50 mM Tris, 120 mM NaCl, 5 mM KCl, 2 mM CaCl2, 10 mM MgCl2) for 15 minutes with mixing. 50 ul of bead/membrane mixture is then added to each well of a 96 well plate, followed by 50 ul of 4 nM 3H-Vasopressin (American Radiolabeled Chemicals). For total binding measurement 100 ul of binding buffer are added to the respective wells, for non-specific binding 100 ul of […] cold vasopressin and for compound testing 100 ul of a serial dilution of each compound in 2% DMSO. The plate is incubated 1 h at room temperature, centrifuged 1 min at 1000 g and counted on a Packard Top-Count. Non-specific binding counts are subtracted from each well, and data is normalized to the maximum specific binding set at 100%. To calculate an IC 50 the curve is fitted using a non-linear regression model (XLfit) and the Ki is calculated using the Cheng-Prussoff equation.
# T1 sequence (P37288 whole entry): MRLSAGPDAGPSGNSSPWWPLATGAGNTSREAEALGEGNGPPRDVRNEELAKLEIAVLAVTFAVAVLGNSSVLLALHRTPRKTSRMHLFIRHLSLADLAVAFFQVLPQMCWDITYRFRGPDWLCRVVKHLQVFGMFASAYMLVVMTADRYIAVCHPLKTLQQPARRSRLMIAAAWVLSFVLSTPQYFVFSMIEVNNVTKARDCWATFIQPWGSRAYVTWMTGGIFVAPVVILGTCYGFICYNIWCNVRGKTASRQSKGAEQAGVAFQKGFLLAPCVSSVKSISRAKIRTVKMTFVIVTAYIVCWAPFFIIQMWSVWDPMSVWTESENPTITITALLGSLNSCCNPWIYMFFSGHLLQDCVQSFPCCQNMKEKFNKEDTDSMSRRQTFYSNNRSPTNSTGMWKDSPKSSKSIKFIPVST
row,SMILES,Ki
1,"COc1cccc(OC)c1C1CCN(C(=O)c2cn(Cc3ccccn3)c3cc(Cl)ccc23)CC1 [Example 47, (6-Chloro-1-pyridin-2-ylmethyl-1H-indol-3-yl)-[4-(2,6-dimethoxy-phenyl)-piperidin-1-yl]-methanone]",4 nM
2,"COc1ccccc1C1(C#N)CCN(C(=O)c2cn(CC(=O)N(C)C)c3cc(Cl)ccc23)CC1 [Example 60, 2-{6-Chloro-3-[4-cyano-4-(2-methoxy-phenyl)-piperidine-1-carbonyl]-indol-1-yl}-N,N-dimethyl-acetamide]",8 nM
3,"CN(C)C(=O)Cn1cc(C(=O)N2CCC(c3ccncc3)CC2)c2ccc(Cl)cc21 [Example 122, 2-[6-Chloro-3-(3,4,5,6-tetrahydro-2H-[4,4′]bipyridinyl-1-carbonyl)-indol-1-yl]-N,N-dimethyl-acetamide]",10 nM

# Same assay, conditions: displacement of 4 nM 3H-Vasopressin, HEK293 cell membranes, Ki by Cheng-Prussoff from IC50; read-out: Ki
row,SMILES,Ki
1,"CNC(=O)Cn1cc(C(=O)N2CCC(c3ccccc3C(F)(F)F)CC2)c2ccc(Cl)cc21 [Example 96, 2-{6-Chloro-3-[4-(2-trifluoromethyl-phenyl)-piperidine-1-carbonyl]-indol-1-yl}-N-methyl-acetamide]",11 nM
2,"COc1ccccc1C1CCN(C(=O)c2cn(CC(=O)N(C)C)c3cc(Cl)c(Cl)cc23)CC1 [Example 80, 2-{5,6-Dichloro-3-[4-(2-methoxy-phenyl)-piperidine-1-carbonyl]-indol-1-yl}-N,N-dimethyl-acetamide]",6 nM
3,"CN(C)C(=O)Cn1cc(C(=O)N2CCC(c3ccccc3C(F)(F)F)CC2)c2ccc(Cl)cc21 [Example 102, 2-{6-Chloro-3-[4-(2-trifluoromethyl-phenyl)-piperidine-1-carbonyl]-indol-1-yl}-N,N-dimethyl-acetamide]",7 nM
4,"COc1ccccc1N1CCN(C(=O)c2cn(CCN(C)C)c3cc(Cl)ccc23)CC1 [Example 163, [6-Chloro-1-(2-dimethylamino-ethyl)-1H-indol-3-yl]-[4-(2-methoxy-phenyl)-piperazin-1-yl]-methanone]",22 nM
5,"CS(=O)(=O)NCCn1cc(C(=O)N2CCN(c3ccccc3F)CC2)c2ccc(Cl)cc21 [Example 218, N-(2-{6-Chloro-3-[4-(2-fluoro-phenyl)-piperazine-1-carbonyl]-indol-1-yl}-ethyl)-methanesulfonamide]",16 nM
6,"C[C@H](N)Cn1cc(C(=O)N2CCN(c3ccccc3F)CC2)c2ccc(Cl)cc21 [Example 198, [1-((S)-2-Amino-propyl)-6-chloro-1H-indol-3-yl]-[4-(2-fluoro-phenyl)-piperazin-1-yl]-methanone]",20 nM

# Source: US7781436B2 (Hoffmann-La Roche Inc., priority 2005, dated 2010)
